Experiments:
[1] = test system: TC-1 cells + TGF-β1-treated murine lung fibroblasts (myoMLF); experiment: Isograft model TC-1 + myoMLF (myoCAF-high tumours); assay type: in vivo, C57/BL6 female mice
Procedure: SMA immunohistochemistry (IHC; Sigma Aldrich; A2547) on FFPE tissues was performed as previously: in brief, tissues were fixed in 4% paraformaldehyde and embedded in paraffin. 4 μm sections were de-paraffinized, rehydrated and antigen retrieved for 20 minutes at 97° C. using a predefined program on the Dako PT links. Antigen retrieval was performed using Envision FLEX High pH. Endogenous peroxidase activity was blocked using 3% hydrogen peroxide. Mouse Ig blocking reagent (M.O.M kit vector labs) was applied for 1 hour. Primary antibody incubation (1:100) in M.O.M diluent (vector labs) was for 20 minutes. For secondary amplification, M.O.M. Biotinylated anti-Mouse IgG reagentwas applied for 10 minutes followed by Vectorstain elite ABC reagent (vector labs). Chromogenic visualization was completed with 2×5 minute washes in DAB and counterstaining with Haematoxylin. For IHC of CD8 (in house; YTS169), CD4 (BD; RM4-5) and F480 (AbD Serotec; CI:A3-1) tissues were frozen in OCT. 8 μm sections were fixed in 100% acetone for 10 minutes. Endogenous peroxidase activity was blocked using neat peroxidase suppressor (Peirce) for 15 minutes. Sections were blocked for 30 minutes with 2.5% goat serum. Primary antibodies were applied for 2 hours −CD8 (1:800), CD4 (1:100), F480 (1:100). Appropriate species HRP polymer (ImmunoPress, Vector Laboratories) was applied to sections for 30 minutes. Vector NovaRED chromagen substrate (Vector Laboratories) was applied for 2-10 minutes then counterstained with haematoxylin (Vector Laboratories) for 30 seconds. Images were captured using an Olympus CKX41 microscope with Cell B imaging software. % area of staining was calculated using Fiji software (java) by running the ‘color deconvolution’ tool analyzing H DAB. The image was appropriately thresholded based on the ‘color 2’ image. The same thresholding was applied to all images from the same experiment. Regions of interest (margin & core) were confirmed by a pathologist, and each point plotted represents the mean of a minimum of 4 independent fields of view (field diameter=2 mm) from margin and core (one section per mouse). The mean was calculated from 2 or 3 mice/experimental group.
Quantification of SMA staining in mouse tumours was carried out using color thresholding and deconvolution in Fiji. At least three independent fields of view (FoV) of at least three tumours were randomly selected by a consultant pathologist (GJT) to generate a mean value per tumour representing the SMA-positive area %, which was compared between treatment groups.
CD8 and CD4 IHC was performed on frozen tissue embedded in OCT using [YTS169 (CD8; in house) and RM4-5 (CD4; BD) (FIG. 6c & FIG. 12e). 8 μm sections were fixed in 100% acetone for 10 minutes and stained as previously shown. CD8 and CD4 IHC on FFPE was performed using 98941S and 25229S respectively (Cell Signaling; FIG. 6a,g,k,o and FIG. 12a-c,g & 13m,o) using the Leica Bond system according to the manufacturer's instructions (Protocol F mouse 4; HIER 20 MINUTES ER1; Temperature-Ambient; 1:100 dilution; 20 min of NGS blocking incubation). CD8 and CD4 T-cells were counted from ten randomly selected fields of view (FoV) from the tumour by a consultant pathologist (GJT).
All mouse experiments were performed according to national and international guidelines and were approved by the authors' institutional review board and the UK Home Office. Xenograft model: 6.7×10^5 PT cells±2×10^6 HFFF2 cells were resuspended in 100 μl PBS and injected s.c. in the flank of partially immunocompromised, male RAG1−/−C57BL/6 mice (3-5 months old). Isograft models: 0.5×10^5 TC-1 cells±3×10^5 TGF-β1-treated murine lung fibroblasts (myoMLFs) or 1×10^5 MC38 cells±5×10^5 TGF-β1-treated murine colon fibroblasts (myoMCFs) were resuspended in 100 μl PBS and injected s.c. in the flank of C57/BL6 female mice (6-8 weeks old). 5-8 animals for both models were used per group. […]

[2] = monotherapy, dose escalation phase 1; cited from earlier work
[3] = AZD0156 20 mg/Kg oral gavage daily
[4] = AZD0156, myoCAF-high TC-1 tumours

CN(C)CCCOc1ccc(-c2ccc3ncc4c(c3c2)n(C2CCOCC2)c(=O)n4C)cn1 [AZD0156]
myofibroblast accumulation (SMA IHC) [1, 3]: suppressed | tumour growth [1, 3]: slowed | CD4 T-cell infiltration (IHC) [1, 4]: unaffected | location of CD8 T-cells, tumour periphery to tumour core (IHC) [1, 4]: significant relocation | CD8 T-cell phenotype/function (flow cytometry) ([1]; AZD0156, myoCAF-high tumours): did not affect | overall survival ([1]; AZD0156 daily at day 15-28): improved | intratumoural myoCAF accumulation ([1]; AZD0156 monotherapy in the RAH vaccine experiment): effective in reducing | adverse effects [2]: not yet reporting to be associated with adverse effects

Source: patent publication US20260256799A1, “INHIBITORS FOR TREATING SOLID TUMOURS” (UNIVERSITY OF SOUTHAMPTON, priority 2023, published 2026)
